In test [1] the target is human recombinant phosphodiesterase (PDE3A) (Homo sapiens (Human), UniProt Q14432). Description: Radiometric PDE3A assay. Type of test: biochemical. Particulars: [3H]-cAMP hydrolysis, 20 minutes at 30° C. The method, then:
Partially purified human recombinant phosphodiesterase (PDE3A) was obtained by cloning cDNA and expressing in S. frugiperda insect cells using a baculovirus expression system. Cells were harvested from culture by centrifuging at 400×g for 5 minutes. Cell pellet was resuspended in 20 ml of RIPA Buffer (150 mM NaCl, 10 mM Tris, 0.1% NP-40, pH8.3), 4 ml/200 ml of culture, plus protease inhibitors (100 μl/10 ml) and incubated on ice for 10-20 minutes then spun at 3500×g for 10 minutes at 4° C. Supernatant was kept and the pellet thrown away. Tritium-labeled cyclic AMP was hydrolysed to 5′-AMP by PDE3A. The 5′-AMP was then further hydrolysed to adenosine by nucleotidase in snake venom. An anion-exchange resin binds all charged nucleotides and leaves [3H]adenosine as the only labeled compound to be counted by liquid scintillation. The radiometric assay method is a modification of the two-step method of Thompson and Appleman [Biochemistry 10; 311-316; 1971], adapted for a 96 well plate format. 50 μl of diluted PDE3A was incubated with 50 μl of [3H]-CAMP (specific activity 25 Ci/mmol) and 11 μl of 50% DMSO (or compound dilution) for 20 minutes at 30° C. The enzyme was diluted in 20 mM Tris HCl pH7.4 (×2.2 final concentration) and [3H]-cAMP were diluted in 10 mM MgCl2, 40 mM Tris HCl pH 7.4 (×2.2 final concentration). Reactions were carried out in Greiner 96 deep well 1 ml master-block. The plates were centrifuged for 9 seconds before the 20 minutes incubation. The reaction was terminated by denaturing the PDE enzyme (at 70° C. for 2 minutes, plates were left to cool on ice for 10 minutes) after which 25 μl snake venom nucleotidase (225 ug/ml final concentration) was added and incubated for 10 minutes (at 30° C.), plates were centrifuged for 9 seconds before incubation. After incubation 200 μl Dowex resin (1×8, 200-400 mesh) was added and the plate was shaken for 20 minutes then centrifuged for 3 minutes at 1000×g. 50 μl of supernatant was removed and added to 200 μl of MicroScint-20 in white plates (Greiner 96-well Optiplate) and shaken for 30 minutes before reading on Perkin Elmer TopCount Scintillation Counter. GraphPad Prism™ was used to calculate the IC50 values using a sigmoidal dose response (variable slope). The analysis measures 4 parameters including the best fit values for the bottom and top fit of the curve, the hill slope value and the IC50 value.

Test [2] has as its target first bromodomain of BRD4 (Homo sapiens (Human), UniProt O60885). Description: Bromoscan binding assay BRD4 (1). The conditions noted are these: for Kd: Bromoscan, geometric mean where multiple measurements have been made; for Selectivity BRD4(2)/BRD4(1): ratio BRD4(2) Kd / BRD4(1) Kd. The procedure:
(§1) Compounds were assayed for binding affinity using bromoscan assays and a phosphodiesterase three assay.
(§2) Bromoscan assays were run by DiscoveRx Corporation. The relevant assay names are BRD4 (1) for the first bromodomain of BRD4 and BRD4 (2) for the second bromodomain of BRD4. Further Bromoscan assays covering other bromodomains may be employed to establish the selectivity profile of a compound of interest. To run the Bromoscan assay, a T7 phage strain displaying the relevant bromodomain was grown in parallel in 24-well blocks in an E. coli host derived from the BL21 strain. E. coli were grown to log-phase and infected with T7 phage from a frozen stock (multiplicity of infection=0.4) and incubated with shaking at 32° C. until lysis (90-150 minutes). The lysates were centrifuged (5,000×g) and filtered (0.2 μm) to remove cell debris. […] The liganded beads were blocked with excess biotin and washed with blocking buffer (SeaBlock (Pierce), 1% BSA (bovine serum albumin), 0.05% Tween 20, 1 mM DTT (dithiothreitol)) to remove unbound ligand and to reduce non-specific phage binding. […] Test compounds were prepared as 1000× stocks in 100% DMSO and subsequently diluted 1:10 in monoethylene glycol (MEG) to create stocks at 100× the screening concentration (resulting stock solution is 10% DMSO/90% MEG). The compounds were then diluted directly into the assays such that the final concentration of DMSO and MEG were 0.1% and 0.9%, respectively. All reactions were performed in polystyrene 96-well plates in a final volume of 0.135 ml. […] The bromodomain concentration in the eluates was measured by qPCR (quantitative real-time polymerase chain reaction). Binding constants (Kds) were calculated with a standard dose-response curve using the Hill equation: Response=Blackground+((Signal-Background)/(1+Kd^Hill Slope/Dose^Hill Slope)). The Hill Slope was set to −1. Curves were fitted using a non-linear least square fit with the Levenberg-Marquardt algorithm.

Test [3] has as its target second bromodomain of BRD4 (Homo sapiens (Human), UniProt O60885). As to the kind of experiment: Bromoscan binding assay BRD4 (2). Particulars: geometric mean where multiple measurements have been made. The procedure:
as §1, §2

This is an account of results in US20250382308A1, “COMPOUNDS ACTIVE TOWARDS BROMODOMAINS” (NUEVOLUTION A/S, priority 2022, published 2025).

Sequence of human recombinant phosphodiesterase (PDE3A) (Q14432 whole entry): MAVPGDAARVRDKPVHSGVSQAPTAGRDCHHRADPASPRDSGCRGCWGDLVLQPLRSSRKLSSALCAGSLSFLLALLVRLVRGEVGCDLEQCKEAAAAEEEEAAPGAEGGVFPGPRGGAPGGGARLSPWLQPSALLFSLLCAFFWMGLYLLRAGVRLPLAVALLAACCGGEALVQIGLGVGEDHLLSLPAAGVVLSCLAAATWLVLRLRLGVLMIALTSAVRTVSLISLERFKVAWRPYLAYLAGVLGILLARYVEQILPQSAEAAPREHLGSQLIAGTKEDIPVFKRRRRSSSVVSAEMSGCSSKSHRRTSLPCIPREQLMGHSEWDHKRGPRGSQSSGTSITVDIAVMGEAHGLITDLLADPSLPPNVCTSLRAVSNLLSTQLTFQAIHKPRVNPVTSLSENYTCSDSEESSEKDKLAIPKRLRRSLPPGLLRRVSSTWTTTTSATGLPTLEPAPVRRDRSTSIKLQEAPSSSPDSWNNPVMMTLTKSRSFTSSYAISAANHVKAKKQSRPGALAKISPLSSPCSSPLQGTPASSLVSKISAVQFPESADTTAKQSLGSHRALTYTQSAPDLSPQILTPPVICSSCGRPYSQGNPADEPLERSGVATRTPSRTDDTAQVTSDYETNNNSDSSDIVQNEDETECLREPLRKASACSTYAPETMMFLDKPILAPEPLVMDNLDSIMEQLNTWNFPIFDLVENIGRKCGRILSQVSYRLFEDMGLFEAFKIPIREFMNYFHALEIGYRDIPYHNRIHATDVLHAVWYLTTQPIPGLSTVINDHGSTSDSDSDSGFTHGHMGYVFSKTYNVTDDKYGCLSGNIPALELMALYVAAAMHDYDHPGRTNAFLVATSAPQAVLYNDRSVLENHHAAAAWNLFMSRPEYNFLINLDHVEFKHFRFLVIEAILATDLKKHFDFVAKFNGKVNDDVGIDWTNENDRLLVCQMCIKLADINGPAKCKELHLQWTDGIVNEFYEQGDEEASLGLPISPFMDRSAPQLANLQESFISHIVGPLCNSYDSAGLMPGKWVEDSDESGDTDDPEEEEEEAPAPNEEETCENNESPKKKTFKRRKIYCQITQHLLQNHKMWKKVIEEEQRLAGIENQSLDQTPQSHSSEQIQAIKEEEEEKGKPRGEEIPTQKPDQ

In the case of `Cc1cc(=O)[nH]c2c(OC3CNC3)cc(NC(=O)c3cc4c(nc3N3CCOCC3)COC4)cc12` [Example 37, N-[8-(azetidin-3-yloxy)-4-methyl-2-oxo-1H-quinolin-6-yl]-2-morpholino-5,7-dihydrofuro[3,4-b]pyridine-3-carboxamide], the IC50 (in general, the concentration needed to halve the response being measured) in test [1] is more than 10000 nM. Further, in test [2], the Kd – broadly, the equilibrium constant for the complex coming apart – amounted to 35 nM and the “Selectivity BRD4(2)/BRD4(1)” value is given as more than 286. Besides, in test [3], the equilibrium dissociation constant (Kd) is more than 10000 nM.

Turning to `CCOc1cc(NC(=O)c2cc3c(nc2N2CCOCC2)COC3)cc2c(C)cc(=O)[nH]c12` [Example 12, N-(8-ethoxy-4-methyl-2-oxo-1H-quinolin-6-yl)-2-morpholino-5,7-dihydrofuro[3,4-b]pyridine-3-carboxamide], the IC50 in test [1] was more than 10000 nM. The Kd in test [2] was 87 nM; in test [3] it was 8100 nM. Further, in test [2], the “Selectivity BRD4(2)/BRD4(1)” value is reported as 93.

Consider `COc1cc(NC(=O)c2cc3c(nc2N2CCOCC2)CNC3)cc2c(C)cc(=O)[nH]c12` [Example 1, N-(8-methoxy-4-methyl-2-oxo-1H-quinolin-6-yl)-2-morpholino-6,7-dihydro-5H-pyrrolo[3,4-b]pyridine-3-carboxamide], for which the IC50 in test [1] was more than 10000 nM. Further, the Kd was determined as 8 nM in test [2] and 600 nM in test [3]. Besides, in test [2], the “Selectivity BRD4(2)/BRD4(1)” value was 75.

In the case of `Cc1cc(=O)[nH]c2c(C)cc(NC(=O)c3cc4c(nc3N3CCOCC3)COC4)cc12` [Example 7, N-(4,8-dimethyl-2-oxo-1H-quinolin-6-yl)-2-morpholino-5,7-dihydrofuro[3,4-b]pyridine-3-carboxamide], in test [1], the IC50 is more than 10000 nM. Also, in test [2], binding was put at a Kd of 40 nM and the “Selectivity BRD4(2)/BRD4(1)” value was 178. The molecule also registered a Kd in test [3] of 7100 nM.

In the case of `COc1cc(NC(=O)c2cc3c(nc2N2CCOCC2)COC3)cc2c(C)cc(=O)[nH]c12` [Example 15, N-(8-methoxy-4-methyl-2-oxo-1H-quinolin-6-yl)-2-morpholino-5,7-dihydrofuro[3,4-b]pyridine-3-carboxamide], the 50% inhibitory concentration (IC50) in test [1] is more than 10000 nM. Further, in test [2], the equilibrium dissociation constant (Kd) stood at 14 nM and the “Selectivity BRD4(2)/BRD4(1)” value is on record as 157. Also, the equilibrium dissociation constant (Kd) in test [3] worked out at 2200 nM.

For the molecule `Cc1cc(=O)[nH]c2c(OCCO)cc(NC(=O)c3cc4c(nc3N3CCOCC3)COC4)cc12` [Example 36, N-[8-(2-hydroxyethoxy)-4-methyl-2-oxo-1H-quinolin-6-yl]-2-morpholino-5,7-dihydrofuro[3,4-b]pyridine-3-carboxamide], the 50% inhibitory concentration (IC50) in test [1] was more than 10000 nM. Further, in test [2], the dissociation constant (Kd) was found to be 27 nM and the “Selectivity BRD4(2)/BRD4(1)” value came to 15. Moreover, in test [3], the Kd came to 400 nM.

For `COc1cc(NC(=O)c2cc3c(nc2N2C4CCC2CC4)COC3)cc2c(C)cc(=O)[nH]c12` [Example 39, 2-(7-azabicyclo[2.2.1]heptan-7-yl)-N-(8-methoxy-4-methyl-2-oxo-1H-quinolin-6-yl)-5,7-dihydrofuro[3,4-b]pyridine-3-carboxamide], the concentration for half-maximal inhibition (IC50) in test [1] is more than 10000 nM. Further, in test [2], the equilibrium dissociation constant (Kd) turned out to be 7 nM and the “Selectivity BRD4(2)/BRD4(1)” value came to 43. The molecule also yielded a dissociation constant (Kd) in test [3] of 300 nM.

With `COc1cc(NC(=O)c2cc3c(nc2N(C)CC2CC2)COC3)cc2c(C)cc(=O)[nH]c12` [Example 26, 2-[cyclopropylmethyl(methyl)amino]-N-(8-methoxy-4-methyl-2-oxo-1H-quinolin-6-yl)-5,7-dihydrofuro[3,4-b]pyridine-3-carboxamide], in test [1], the IC50 is more than 10000 nM. Besides, in test [2], binding was characterised by a dissociation constant (Kd) of 51 nM and the “Selectivity BRD4(2)/BRD4(1)” value is reported as 61. The same molecule had a Kd in test [3] of 3100 nM.

As for `COc1cc(NC(=O)c2cc3c(nc2N2CC[C@H](F)C2)COC3)cc2c(C)cc(=O)[nH]c12` [Example 41, 2-[(3S)-3-fluoropyrrolidin-1-yl]-N-(8-methoxy-4-methyl-2-oxo-1H-quinolin-6-yl)-5,7-dihydrofuro[3,4-b]pyridine-3-carboxamide], the half-inhibitory concentration (IC50) in test [1] is more than 10000 nM. Moreover, in test [2], binding was characterised by a dissociation constant (Kd) of 92 nM and the “Selectivity BRD4(2)/BRD4(1)” value was more than 109. This molecule gave a Kd in test [3] of more than 10000 nM.

Turning to `Cc1cc2[nH]c(=O)cc(C)c2cc1NC(=O)c1cc2c(nc1N1CCOCC1)COC2` [Example 11, N-(4,7-dimethyl-2-oxo-1H-quinolin-6-yl)-2-morpholino-5,7-dihydrofuro[3,4-b]pyridine-3-carboxamide], the half-inhibitory concentration (IC50) in test [1] was 7000 nM. The Kd in test [2] is 90 nM; in test [3], more than 10000 nM. Also, in test [2], the “Selectivity BRD4(2)/BRD4(1)” value is reported as more than 111.

Turning to `COc1cc(NC(=O)c2cc3c(nc2N2CCOCC2)CCC3)cc2c(C)cc(=O)[nH]c12` [Example 29, N-(8-methoxy-4-methyl-2-oxo-1H-quinolin-6-yl)-2-morpholino-6,7-dihydro-5H-cyclopenta[b]pyridine-3-carboxamide], the IC50 in test [1] was more than 10000 nM. The Kd in test [2] amounted to 18 nM; in test [3] it was 1900 nM. In addition, in test [2], the “Selectivity BRD4(2)/BRD4(1)” value came out at 106.

With `COc1cc(NC(=O)c2cc3c(nc2N(C)C)COC3)cc2c(C)cc(=O)[nH]c12` [Example 6, 2-(dimethylamino)-N-(8-methoxy-4-methyl-2-oxo-1H-quinolin-6-yl)-5,7-dihydrofuro[3,4-b]pyridine-3-carboxamide], the IC50 in test [1] was more than 10000 nM. Besides, in test [2], binding was characterised by a dissociation constant (Kd) of 120 nM and the “Selectivity BRD4(2)/BRD4(1)” value came out at 11. Binding in test [3] was put at a Kd of 1300 nM.

Regarding `CNCCOc1cc(NC(=O)c2cc3c(nc2N2CCOCC2)COC3)cc2c(C)cc(=O)[nH]c12` [Example 38, N-[4-methyl-8-[2-(methylamino)ethoxy]-2-oxo-1H-quinolin-6-yl]-2-morpholino-5,7-dihydrofuro[3,4-b]pyridine-3-carboxamide], in test [1], the 50% inhibitory concentration (IC50) is more than 10000 nM. In test [2], the Kd was determined as 20 nM and the “Selectivity BRD4(2)/BRD4(1)” value is more than 250. Moreover, the Kd in test [3] is more than 5000 nM.

For `COc1cc(NC(=O)c2cc3c(nc2N2C[C@H](F)[C@@H](F)C2)COC3)cc2c(C)cc(=O)[nH]c12` (racemic) [Example 43, N-(8-methoxy-4-methyl-2-oxo-1H-quinolin-6-yl)-2-[rac-(3S,4S)-3,4-difluoropyrrolidin-1-yl]-5,7-dihydrofuro[3,4-b]pyridine-3-carboxamide], the IC50 in test [1] was more than 10000 nM. Further, the dissociation constant Kd is 18 nM in test [2] and 400 nM in test [3]. For the same molecule, the “Selectivity BRD4(2)/BRD4(1)” value in test [2] stood at 22.

For the molecule `COc1cc(NC(=O)c2cc3c(nc2N2C4CCC2COC4)COC3)cc2c(C)cc(=O)[nH]c12` [Example 17, N-(8-methoxy-4-methyl-2-oxo-1H-quinolin-6-yl)-2-(3-oxa-8-azabicyclo[3.2.1]octan-8-yl)-5,7-dihydrofuro[3,4-b]pyridine-3-carboxamide], the 50% inhibitory concentration (IC50) in test [1] was more than 10000 nM. Also, in test [2], binding was characterised by a dissociation constant (Kd) of 25 nM and the “Selectivity BRD4(2)/BRD4(1)” value was determined as 44. Also, in test [3], the Kd was found to be 1100 nM.
